Among the test systems are SK-OV-3 ovarian; HCC-2998 colon; HL-60(TB) leukemia; SK-MEL-28 melanoma; KM12 colon; ACHN renal; UO-31 renal; BT-549 breast.
Common to all, as to assay: inhibition of tumour cell growth, NCI panel, 48 h

Each structure is given as a SMILES string.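 A five-concentration, 48-hour dose response in 96-well plates underlies each endpoint, interpolated linearly between surrounding concentrations. GI50 is the concentration that inhibits growth by half. At the TGI there is no net growth.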

Take `COC(=O)NC(=O)c1cn(C2OC(CO)C(O)C2O)c(=O)[nH]c1=O` (stereo not drawn): the TGI in the experiment on SK-OV-3 ovarian, with HCC-2998 colon, with HL-60(TB) leukemia, in the experiment on SK-MEL-28 melanoma, in the experiment with KM12 colon and in the experiment with ACHN renal was greater than 100 µM in each case. Further, the TGI in the experiment on UO-31 renal is greater than 100 µM.
Regarding `COc1cc(C(O)CCBr)c(OC)cc1C` (stereo not drawn), the TGI in the experiment with SK-OV-3 ovarian was greater than 73.6 µM; in the experiment with HL-60(TB) leukemia, greater than 100 µM; in the experiment with SK-MEL-28 melanoma, greater than 100 µM; in the experiment with BT-549 breast, greater than 84.4 µM; in the experiment on KM12 colon, greater than 86.7 µM; in the experiment with ACHN renal, greater than 100 µM. Besides, the TGI in the experiment on UO-31 renal is greater than 100 µM.
Consider `COc1ccc(/C=C/C(=O)c2cc(OC)c(OC)c(OC)c2)cc1OCc1cn(Cc2ccc(F)cc2)nn1`, for which the GI50 was 3.42 µM in the experiment with HCC-2998 colon; 3.31 µM with HL-60(TB) leukemia; 5.62 µM in the experiment with SK-MEL-28 melanoma; 3.45 µM in the experiment with BT-549 breast; 3.14 µM in the experiment on KM12 colon; 3.53 µM with ACHN renal. Also, the GI50 with UO-31 renal was 4 µM. Further, the TGI turned out to be 11.5 µM in the experiment with HCC-2998 colon; 9.07 µM in the experiment with HL-60(TB) leukemia; 35.5 µM in the experiment with SK-MEL-28 melanoma; 27.7 µM with BT-549 breast; 18.2 µM with KM12 colon; 16.7 µM in the experiment with ACHN renal. The TGI with UO-31 renal was determined as 79.8 µM.
`COC(=O)c1ccc(-c2nc3cc(Cl)c(Cl)cc3nc2C#N)cc1`: the GI50 with SK-OV-3 ovarian, in the experiment with HCC-2998 colon, in the experiment on SK-MEL-28 melanoma, with BT-549 breast, in the experiment with KM12 colon and in the experiment with ACHN renal was greater than 100 µM in each case. Besides, the GI50 with UO-31 renal was greater than 100 µM. The TGI in the experiment with SK-OV-3 ovarian, in the experiment with HCC-2998 colon, in the experiment with SK-MEL-28 melanoma, in the experiment on BT-549 breast, in the experiment on KM12 colon and in the experiment with ACHN renal was greater than 100 µM in each case. The TGI in the experiment with UO-31 renal was greater than 100 µM.
With `CCOC(=O)c1c(C)nc2c(c1N)CC(=O)N2Cc1ccc(OC)cc1`, the GI50 with HCC-2998 colon was greater than 100 µM; in the experiment with HL-60(TB) leukemia, greater than 100 µM; in the experiment with SK-MEL-28 melanoma, greater than 100 µM; with BT-549 breast, 6.3 µM; with KM12 colon, greater than 100 µM; with ACHN renal, 9.56 µM. Moreover, the GI50 in the experiment with UO-31 renal is greater than 100 µM. Moreover, the TGI in the experiment on HCC-2998 colon, in the experiment with HL-60(TB) leukemia, with SK-MEL-28 melanoma, in the experiment on BT-549 breast, in the experiment with KM12 colon and in the experiment with ACHN renal was greater than 100 µM throughout. Besides, in the experiment on UO-31 renal, the TGI is greater than 100 µM.
Consider `NS(=O)(=O)c1ccc(-n2nc(-c3ccc(Cl)cc3)cc2-c2cc(O)ccc2O)cc1`, for which the GI50 in the experiment on HCC-2998 colon was 17.2 µM; with HL-60(TB) leukemia, 10 µM; in the experiment with BT-549 breast it was 23.9 µM; in the experiment with KM12 colon it was 13.4 µM; with ACHN renal, 13.4 µM; in the experiment on UO-31 renal, 26.5 µM. Besides, the TGI in the experiment on HCC-2998 colon was 31.2 µM; with HL-60(TB) leukemia it was 69 µM; in the experiment on BT-549 breast, 58.3 µM; in the experiment on KM12 colon it was 32.6 µM; in the experiment on ACHN renal it was 26.2 µM; with UO-31 renal it was greater than 100 µM.
On to `Cc1cccc(/C=C/c2c(C(=O)/C=C/c3ccccc3)c(C)nc3ccccc23)c1`, for which the GI50 was 1.73 µM in the experiment on HCC-2998 colon; 1.83 µM in the experiment with HL-60(TB) leukemia; 1.81 µM in the experiment with SK-MEL-28 melanoma; 1.72 µM with KM12 colon; 1.62 µM in the experiment on ACHN renal; 1.26 µM in the experiment on UO-31 renal. For the same molecule, the TGI was found to be 3.49 µM in the experiment on HCC-2998 colon; 4.34 µM in the experiment with HL-60(TB) leukemia; 3.28 µM in the experiment on SK-MEL-28 melanoma; 3.56 µM with KM12 colon; 2.97 µM in the experiment with ACHN renal; 2.51 µM in the experiment on UO-31 renal.
As for `O=C(c1ccccc1)c1ccccc1-c1ccccc1`, the GI50 in the experiment on SK-OV-3 ovarian was 3.54 µM; with HCC-2998 colon it was 6.14 µM; in the experiment with SK-MEL-28 melanoma it was 7.52 µM; with BT-549 breast, 10.3 µM; with KM12 colon, 1.16 µM; in the experiment on ACHN renal, 9.46 µM. Further, the GI50 with UO-31 renal was 6.99 µM. Moreover, the TGI with SK-OV-3 ovarian is 25.2 µM; with HCC-2998 colon, 34.5 µM; in the experiment with SK-MEL-28 melanoma, greater than 100 µM; with BT-549 breast, greater than 100 µM; in the experiment with KM12 colon, 43.3 µM; in the experiment with ACHN renal, greater than 100 µM. In the experiment on UO-31 renal, the TGI was found to be 98.1 µM.
For `CCN(Cc1cc(Nc2nc(C)cn3c(-c4cn[nH]c4)cnc23)sn1)C(C)(C)CO`, the GI50 is 0.0241 µM in the experiment on SK-OV-3 ovarian; 0.0741 µM in the experiment on HCC-2998 colon; 1.41 µM in the experiment on SK-MEL-28 melanoma; 0.0458 µM in the experiment with BT-549 breast; 0.0328 µM in the experiment with KM12 colon; 0.0306 µM with ACHN renal. Also, the GI50 with UO-31 renal is 0.0428 µM. The TGI with SK-OV-3 ovarian stood at 3.38 µM; in the experiment with HCC-2998 colon, 4.56 µM; with SK-MEL-28 melanoma, 14.7 µM; in the experiment with BT-549 breast it was 1.18 µM; in the experiment with KM12 colon it was 10.4 µM; in the experiment on ACHN renal it was 11.9 µM. In the experiment on UO-31 renal, the TGI amounted to 10.1 µM.
As for `O=C1C(Cl)=C(Nc2cccc(F)c2)C(=O)N1Cc1ccc(Cl)cc1`, the GI50 in the experiment with SK-OV-3 ovarian was 2.59 µM; in the experiment with HCC-2998 colon, 0.935 µM; in the experiment with SK-MEL-28 melanoma, 2.96 µM; in the experiment with BT-549 breast it was 0.841 µM; in the experiment on KM12 colon, 2.66 µM; in the experiment on ACHN renal it was 2.54 µM. Moreover, the GI50 in the experiment on UO-31 renal is 3.69 µM. Besides, the TGI with SK-OV-3 ovarian was determined as 17.6 µM; with HCC-2998 colon, 4.88 µM; in the experiment on SK-MEL-28 melanoma, 20.6 µM; with BT-549 breast it was 13.4 µM; in the experiment with KM12 colon, 19.1 µM; in the experiment with ACHN renal, 15.2 µM. Further, the TGI in the experiment on UO-31 renal was determined as 35.9 µM.
On to `CC(C)Cn1cnc2c(SCc3ccc(Cl)cc3Cl)nc(N)nc21`, for which the TGI in the experiment with SK-OV-3 ovarian was greater than 100 µM; with HCC-2998 colon it was 37.4 µM; with SK-MEL-28 melanoma it was greater than 100 µM; with BT-549 breast it was greater than 100 µM; in the experiment with KM12 colon it was greater than 100 µM; in the experiment with ACHN renal, 76.5 µM. In the experiment with UO-31 renal, this molecule gave a TGI greater than 100 µM.
As for `CC1(C)C2CCC13C(=O)C1OC3(C2)C2C(=O)c3cc4ccccc4cc3C(=O)C12` (stereo not drawn), the GI50 in the experiment with SK-OV-3 ovarian is 12.2 µM; in the experiment on HCC-2998 colon, 8.53 µM; in the experiment on HL-60(TB) leukemia it was 4.89 µM; in the experiment on SK-MEL-28 melanoma it was 8.36 µM; in the experiment on KM12 colon, 3.79 µM; with ACHN renal, 10.4 µM. The GI50 in the experiment with UO-31 renal is 19.6 µM. Besides, the TGI is 67.4 µM in the experiment with SK-OV-3 ovarian; greater than 100 µM in the experiment on HCC-2998 colon; 26.7 µM with HL-60(TB) leukemia; greater than 100 µM in the experiment on SK-MEL-28 melanoma; 25.1 µM in the experiment on KM12 colon; 26.3 µM with ACHN renal. The TGI with UO-31 renal is greater than 100 µM.

These data come from PubChem BioAssay (NCI).
